Measured values: publication PMC10901556, “Conservation of Affinity Rather Than Sequence Underlies a Dynamic Evolution of the Motif-Mediated p53/MDM2 Interaction in Ray-Finned Fishes” (Molecular Biology and Evolution, 2024)
Where two headings read alike, the source gives them in different places. Where no end group is shown, it is not given here.

How the values were obtained:
Assay in all cases: Fluorescence polarization displacement assay
Assay type in all cases: binding
[1] = target: T1, MDM2H.sapiens SWIB domain (Homo sapiens, UniProt Q00987)
T1 construct: NusA-TEV-His6-PreScission (N, cleaved yes); made in house; host or cells: Escherichia coli BL21 (DE3)

[2] = target: MDM2 SWIB domain, Oncorhynchus kisutch; details: for Kd: FP displacement of FITC-p53TADhuman^15–26 (15 nM) from MDM2, KD from IC50, 20 mM sodium phosphate pH 7.4, 150 mM NaCl, 1 mM TCEP; for IC50 / Ki: O.kis MDM2 2000 nM
[3] = target: MDM2 SWIB domain, Clupea harengus; details: for Kd: FP displacement of FITC-p53TADhuman^15–26 (15 nM) from MDM2 (1 μM), KD from IC50, 20 mM sodium phosphate pH 7.4, 150 mM NaCl, 1 mM TCEP
[4] = target: MDM2 SWIB domain, Anguilla anguilla; details: for Kd: FP displacement of FITC-p53TADhuman^15–26 (15 nM) from MDM2 (1 μM), KD from IC50, 20 mM sodium phosphate pH 7.4, 150 mM NaCl, 1 mM TCEP
[5] = target: MDM2 SWIB domain, Takifugu rubripes; details: for IC50 / Ki: T.rub MDM2 1500 nM
[6] = labeled probe 15 nM, replicate 1, read-out: IC50 [M] (IT)
[7] = labeled probe 15 nM, replicate 2, read-out: IC50 [M] (IT)
[8] = labeled probe 15 nM, replicate 3, read-out: IC50 [M] (IT)
[9] = average of the replicates, probe 15 nM, Kd for probe […], read-out: Ki [nM] Average
[10] = average of the replicates, probe 15 nM, Kd for probe […], read-out: Ki [µM] Average
[11] = calculated from IC50, Kd for probe […], probe 15 nM, replicate 1, read-out: Ki
[12] = calculated from IC50, Kd for probe […], probe 15 nM, replicate 2, read-out: Ki
[13] = calculated from IC50, Kd for probe […], probe 15 nM, replicate 3, read-out: Ki
[14] = mean of the replicates, probe 15 nM, read-out: IC50 [nM], mean of the replicates
[15] = equals the mean of the replicates, read-out: IC50 [nM], mean
[16] = mean of the replicates (n = 3 or 6), read-out: Ki [nM] Average
[17] = mean of the replicates (n = 3 or 6), read-out: Ki [µM] Average
[18] = replicate 1, MDM2 1000 nM, labeled probe 15 nM, read-out: IC50 [M] (IT)
[19] = replicate 1, calculated from IC50 with Kd for probe […], read-out: Ki
[20] = replicate 2, MDM2 1000 nM, labeled probe 15 nM, read-out: IC50 [M] (IT)
[21] = replicate 2, calculated from IC50 with Kd for probe […], read-out: Ki
[22] = replicate 3, MDM2 1000 nM, labeled probe 15 nM, read-out: IC50 [M] (IT)
[23] = replicate 3, calculated from IC50 with Kd for probe […], read-out: Ki

Chain of MDM2 SWIB domain, Takifugu rubripes (as listed by the source): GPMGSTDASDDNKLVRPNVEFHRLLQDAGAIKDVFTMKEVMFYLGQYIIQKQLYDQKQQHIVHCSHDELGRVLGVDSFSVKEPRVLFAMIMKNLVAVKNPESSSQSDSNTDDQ
Chain of MDM2 SWIB domain, Clupea harengus (as listed by the source): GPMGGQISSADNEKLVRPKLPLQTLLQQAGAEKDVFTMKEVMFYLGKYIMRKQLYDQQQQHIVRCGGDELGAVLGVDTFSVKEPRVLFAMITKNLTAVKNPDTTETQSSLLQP
T1 sequence (Q00987 with tags, fused parts or gaps): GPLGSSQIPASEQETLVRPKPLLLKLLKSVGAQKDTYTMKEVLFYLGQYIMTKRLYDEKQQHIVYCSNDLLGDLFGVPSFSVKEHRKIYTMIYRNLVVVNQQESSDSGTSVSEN
Chain of MDM2 SWIB domain, Anguilla anguilla (as listed by the source): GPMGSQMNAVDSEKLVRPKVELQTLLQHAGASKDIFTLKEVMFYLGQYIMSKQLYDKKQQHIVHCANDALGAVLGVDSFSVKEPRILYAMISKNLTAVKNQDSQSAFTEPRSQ
Chain of MDM2 SWIB domain, Oncorhynchus kisutch (as listed by the source): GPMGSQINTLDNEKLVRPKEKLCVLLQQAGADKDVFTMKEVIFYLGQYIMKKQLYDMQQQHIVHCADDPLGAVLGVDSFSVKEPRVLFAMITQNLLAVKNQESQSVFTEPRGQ

Compound: Ac-SQESFQELWKMMC [A.ang p53 P1 short]
- IC50 [1]: 265 nM
- Ki [1]: 12.9 nM

Compound: Ac-SQESFEDLWKMNL [O.kis p53 P2 short]
- IC50 [1]: 5930 nM
- Ki [1]: 787 nM

Compound: CC[C@H](C)[C@H](NC(=O)[C@H](CO)NC(=O)[C@H](CC(N)=O)NC(=O)[C@H](Cc1c[nH]c2ccccc12)NC(=O)[C@H](CC(C)C)NC(=O)[C@H](CC(=O)O)NC(=O)[C@H](CCC(=O)O)NC(=O)[C@H](Cc1ccccc1)NC(=O)[C@H](CC(=O)O)NC(=O)[C@@H]1CCCN1C(=O)[C@H](CO)NC(=O)[C@H](CC(=O)O)NC(C)=O)C(=O)N[C@H](C(=O)O)C(C)C [C.har p53 P2 short]
- IC50 [1]: 2310 nM
- Ki [1]: 293 nM

Compound: GPMGMEEQELSFPMSQGSFQQLWETNMSTQGSNIPPFGTGNWSDLDVSLAPVLPEATFHEDFDEGLFELPEPLAVEPLMSPLDSVPPPAST [O.kis p53 P1b full, expressed full-length coho salmon p53TAD paralog 1b]
- Kd [2]: 60 ± 10 nM
- IC50 [2, 6]: 2.27e-06 M
- IC50 [2, 7]: 2.26e-06 M
- IC50 [2, 8]: 1.96e-06 M
- Ki [2, 9]: 59.6 nM
- Ki [2, 10]: 60 nM
- Ki [2, 11]: 75.2 nM
- Ki [2, 12]: 73.4 nM
- Ki [2, 13]: 30.3 nM
- IC50 [2, 14]: 2.16e-06 M

Compound: GPMGMNDQGDSPDFEDLWNSIVPPVADVPWETSYLPESFDEQVFEQLQVSEPYIPTLGGGSPPCSA [C.har p53 P2 full, expressed full-length Atlantic herring p53TAD paralog 2]
- Kd [3]: 40 ± 10 nM
- IC50 [3, 15]: 904 nM
- Ki [3, 16]: 37.1 nM
- Ki [3, 17]: 37 nM
- IC50 [3, 18]: 913 nM
- Ki [3, 19]: 39.8 nM
- IC50 [3, 20]: 983 nM
- Ki [3, 21]: 59.7 nM
- IC50 [3, 22]: 815 nM
- Ki [3, 23]: 11.9 nM

Compound: Ac-SQESFQELWKMIL [Tele p53 AA]
- IC50 [1]: 105 nM
- KD ([1]; FP displacement, printed in nM (Fig. S4 A native and B human MDM2)): lowest_Kd
- Ki, remark beside the average ([1]; H.sap MDM2, labeled probe 15 nM, protein 200 nM, result in words): very high affinity

Compound: GPMGMADLAENVSLPLSQESFEDLWKMNLNLMAVQPPVTESWVGYDNFMMEAPLQVEFDPSLFEVSATEPAPQPSISTLDTGSPPTST [O.kis p53 P2 full, expressed full-length coho salmon p53TAD paralog 2]
- Kd [2]: 70 ± 10 nM
- IC50 [2, 6]: 2.13e-06 M
- IC50 [2, 7]: 2.37e-06 M
- IC50 [2, 8]: 2.18e-06 M
- Ki [2, 9]: 68.6 nM
- Ki [2, 10]: 69 nM
- Ki [2, 11]: 55.4 nM
- Ki [2, 12]: 88.9 nM
- Ki [2, 13]: 61.7 nM
- IC50 [2, 14]: 2.23e-06 M

Compound: Ac-SQDSFRELWESVV [C.arg p53 P1 short]
- IC50 [1]: 8080 nM
- Ki [1]: 1080 nM

Compound: Ac-SQESFQDLWNMVT [Acti p53 ML]
- IC50 [1]: 1510 nM
- Ki [1]: 183 nM

Compound: Ac-GQCSFQQLWESNM [O.kis p53 P1a short]
- IC50 [1]: 23200 nM
- Ki [1]: 3150 nM

Compound: GPMGMTEQEAESLPLSQESFQELWKMMCPPATIHEPLSVNDGWHLESLLSETPLQESIDAGVFDLPTTLPPQPSVSAFNGDAALSST [A.ang p53 P1 full, expressed full-length European eel p53TAD paralog 1]
- Kd [4]: 230 ± 20 nM
- IC50 [4, 15]: 2210 nM
- Ki [4, 16]: 229 nM
- Ki [4, 17]: 229 nM
- IC50 [4, 18]: 2080 nM
- Ki [4, 19]: 208 nM
- IC50 [4, 20]: 2490 nM
- Ki [4, 21]: 277 nM
- IC50 [4, 22]: 2060 nM
- Ki [4, 23]: 203 nM

Compound: Ac-SQESFQELWNMVI [L.ocu p53 short]
- IC50 [1]: 1050 nM
- Ki [1]: 120 nM

Compound: GPMGMEELSPPLGQCSFQQLWESNMTPQGPSIPLVATENWSDLDVSLLPDATLHKVFDEVLFELLEPPVVEPSVSTLDSVPPPAST [O.kis p53 P1a full, expressed full-length coho salmon p53TAD paralog 1a]
- Kd [2]: 48 ± 5 nM
- IC50 [2, 6]: 2.11e-06 M
- IC50 [2, 7]: 2.02e-06 M
- IC50 [2, 8]: 2.12e-06 M
- Ki [2, 9]: 48.4 nM
- Ki [2, 10]: 48 nM
- Ki [2, 11]: 52.4 nM
- Ki [2, 12]: 38.8 nM
- Ki [2, 13]: 54.1 nM
- IC50 [2, 14]: 2.08e-06 M

Compound: GPMGMEDEGFSLPLSQDTFQDLWENVAAPSIVTIPTTSLENEQWHQELLMNYPELPFNEELFNLPSEMASKDSANLSTPT [T.rub p53 P1 full, expressed full-length Japanese puffer p53TAD paralog 1]
- Kd ([5]; FP displacement of FITC-p53TADhuman^15–26 (15 nM) from MDM2, KD from IC50, 20 mM sodium phosphate pH 7.4, 150 mM NaCl, 1 mM TCEP): 470 ± 30 nM
- IC50 [5, 6]: 4.93e-06 M
- IC50 ([5]; labeled probe 15 nM, replicate 2, read-out: IC50): 4.16e-06 M
- IC50 [5, 8]: 4.19e-06 M
- IC50 ([5]; labeled probe 15 nM, replicate 4, read-out: IC50 [M] (IT)): 3.43e-06 M
- IC50 ([5]; labeled probe 15 nM, replicate 5, read-out: IC50 [M] (IT)): 4.05e-06 M
- IC50 ([5]; labeled probe 15 nM, replicate 6, read-out: IC50 [M] (IT)): 4.53e-06 M
- Ki ([5]; average of the replicates, probe 15 nM, Kd for probe 290 nM, read-out: Ki [nM] Average): 475 nM
- Ki ([5]; average of the replicates, probe 15 nM, Kd for probe 290 nM, read-out: Ki [µM] Average): 475 nM
- Ki ([5]; calculated from IC50, Kd for probe 290 nM, probe 15 nM, replicate 1, read-out: Ki): 592 nM
- Ki ([5]; calculated from IC50, Kd for probe 290 nM, probe 15 nM, replicate 2, read-out: Ki): 467 nM
- Ki ([5]; calculated from IC50, Kd for probe 290 nM, probe 15 nM, replicate 3, read-out: Ki): 471 nM
- Ki ([5]; calculated from IC50, Kd for probe 290 nM, probe 15 nM, replicate 4, read-out: Ki): 347 nM
- Ki ([5]; calculated from IC50, Kd for probe 290 nM, probe 15 nM, replicate 5, read-out: Ki): 449 nM
- Ki ([5]; calculated from IC50, Kd for probe 290 nM, probe 15 nM, replicate 6, read-out: Ki): 527 nM
- IC50 [5, 14]: 4.21e-06 M

Compound: Ac-SQDTFQDLWENVA [T.rub p53 P1 short]
- IC50 [1]: 12700 nM
- Ki [1]: 1710 nM

Compound: Ac-SQESFQELWNMVM [Tele p53 ML]
- IC50 [1]: 456 nM
- Kd [1]: 39 nM

Compound: Ac-SQGTFDEIWASNF [C.har p53 P1 short]
- IC50 [1]: 9330 nM
- Ki [1]: 1250 nM

Compound: GPMGMNQDEMTELPMSQGTFDEIWASNFVNNLDKTILDDLPPAFSNPSIHTLMDLGPSGVEGFVGLELPLDGSAPTPSSSPGMDCLPPTATT [C.har p53 P1 full, expressed full-length Atlantic herring p53TAD paralog 1]
- Kd [3]: 190 ± 40 nM
- IC50 [3, 15]: 1440 nM
- Ki [3, 16]: 189 nM
- Ki [3, 17]: 190 nM
- IC50 [3, 18]: 1470 nM
- Ki [3, 19]: 199 nM
- IC50 [3, 20]: 1660 nM
- Ki [3, 21]: 252 nM
- IC50 [3, 22]: 1180 nM
- Ki [3, 23]: 117 nM

Compound: Ac-SQESFQELWNMVA [Acti p53 AA]
- IC50 [1]: 459 nM
- Kd [1]: 39 nM

Compound: Ac-SQDETFQALWNTVT [A.ang p53 P2 short]
- IC50 [1]: 5780 nM
- Ki [1]: 767 nM

Compound: CC(C)C[C@H](NC(=O)[C@@H](NC(=O)[C@H](CC(N)=O)NC(=O)[C@H](CC(N)=O)NC(=O)[C@H](CCC(=O)O)NC(=O)[C@H](C)NC(=O)[C@H](CC(C)C)NC(=O)[C@H](CC(C)C)NC(=O)[C@H](CCCCN)NC(=O)[C@H](Cc1c[nH]c2ccccc12)NC(=O)[C@H](CC(C)C)NC(=O)[C@H](CC(=O)O)NC(=O)[C@H](CO)NC(=O)[C@H](Cc1ccccc1)NC(=O)[C@@H](NC(=O)[C@@H](N)CCC(=O)O)[C@@H](C)O)C(C)C)C(=O)O [H.sap p53 P27A]
- remark on affinity beside the average Ki ([1]; probe 15 nM, protein 200 nM, calculated Ki negative): very high affinity

Compound: Ac-SQDSFKELWDQLP [M.zeb p53 P1 short]
- IC50 [1]: 2150 nM
- Ki [1]: 270 nM

Compound: GPMGMTEQEGTGALEYSLSQDETFQALWNTVTVPTEDEGWGSLDNQYLVGSPLQDGFDEKLFDVPATPAPPQPSGSALDSGAPPAST [A.ang p53 P2 full, expressed full-length European eel p53TAD paralog 2]
- Kd [4]: 60 ± 10 nM
- IC50 [4, 15]: 1230 nM
- Ki [4, 16]: 63.5 nM
- Ki [4, 17]: 63.5 nM
- IC50 [4, 18]: 1360 nM
- Ki [4, 19]: 85.1 nM
- IC50 [4, 20]: 1080 nM
- Ki [4, 21]: 39.5 nM
- IC50 [4, 22]: 1240 nM
- Ki [4, 23]: 65.8 nM
